# Reference: patent US11596644B2, “Method for treating post-prandial hypoglycemia” (AVOLYNT, priority 2018, dated 2023)
# Key:
# [1] = target: T1, rat SGLT2 (Rattus norvegicus, UniProt P53792); experiment: Inhibition of radiolabeled α-MG uptake into COS-7 cells transfected with rat SGLT2 (Dixon plot); type: cell-based; settings: α-MG 0.3 and 1 mM
# T1 construct: expressed in transfected cells; host or cells: COS-7
# T1 sequence (P53792 1-670): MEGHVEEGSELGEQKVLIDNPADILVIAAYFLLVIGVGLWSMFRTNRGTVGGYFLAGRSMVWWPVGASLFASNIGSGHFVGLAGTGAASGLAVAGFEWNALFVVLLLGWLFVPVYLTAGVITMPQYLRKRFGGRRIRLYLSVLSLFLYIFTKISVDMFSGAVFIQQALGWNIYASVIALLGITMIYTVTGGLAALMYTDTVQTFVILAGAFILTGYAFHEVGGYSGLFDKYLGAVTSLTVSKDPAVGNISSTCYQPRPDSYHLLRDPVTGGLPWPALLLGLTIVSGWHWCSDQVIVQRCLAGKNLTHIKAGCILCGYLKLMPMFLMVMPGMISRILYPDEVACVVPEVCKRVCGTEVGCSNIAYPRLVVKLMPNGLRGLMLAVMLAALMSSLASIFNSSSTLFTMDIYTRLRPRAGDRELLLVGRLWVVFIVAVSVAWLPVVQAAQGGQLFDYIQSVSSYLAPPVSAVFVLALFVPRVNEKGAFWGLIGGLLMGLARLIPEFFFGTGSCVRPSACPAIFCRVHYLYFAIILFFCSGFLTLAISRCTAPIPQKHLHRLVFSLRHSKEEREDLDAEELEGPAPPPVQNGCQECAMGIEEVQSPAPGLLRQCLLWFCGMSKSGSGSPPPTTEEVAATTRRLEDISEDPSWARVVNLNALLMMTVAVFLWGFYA
# Method: (§1) Selective inhibition study. Inhibition constants (Ki) of mizagliflozin for rat and human SGLT1 and SGLT2 were determined measuring concentration-dependent effects of test compound on uptake of radiolabeled methyl-α-D-glucopyranoside (α-MG) into COS-7 cells transiently transfected with cloned SGLT1 or SGLT2. Mizagliflozin was assessed at concentrations from 1 to 30 μM and 3 to 100 μM for human and rat SGLT2, respectively. It was assessed at concentrations from 30 nM to 1 μM and 10 to 30 nM for human and rat SGLT1, respectively. α-MG test concentrations were 0.3 and 1 mM. Data were analyzed and Ki determined using Dixon plots of initial transport rates. […] Inhibition constants were also determined for human SGLT1 and SGLT2.
# [2] = Excretion after oral dosing in non-human primates; type: in vivo
# Description: Accordingly, the SGLT1 inhibitor compounds of Formula I or Formula II are locally acting in the gut, and have poor systemic exposure. […] Systemic exposure (e.g., Cmax) can be measured by methods well known in the art, including liquid chromatography mass spectrometry.
# [3] = target: T2, rat SGLT1 (Rattus norvegicus, UniProt P53790); experiment: Inhibition of radiolabeled α-MG uptake into COS-7 cells transfected with rat SGLT1 (Dixon plot); type: cell-based
# T2 construct: expressed in transfected cells; host or cells: COS-7
# T2 sequence (P53790 1-665): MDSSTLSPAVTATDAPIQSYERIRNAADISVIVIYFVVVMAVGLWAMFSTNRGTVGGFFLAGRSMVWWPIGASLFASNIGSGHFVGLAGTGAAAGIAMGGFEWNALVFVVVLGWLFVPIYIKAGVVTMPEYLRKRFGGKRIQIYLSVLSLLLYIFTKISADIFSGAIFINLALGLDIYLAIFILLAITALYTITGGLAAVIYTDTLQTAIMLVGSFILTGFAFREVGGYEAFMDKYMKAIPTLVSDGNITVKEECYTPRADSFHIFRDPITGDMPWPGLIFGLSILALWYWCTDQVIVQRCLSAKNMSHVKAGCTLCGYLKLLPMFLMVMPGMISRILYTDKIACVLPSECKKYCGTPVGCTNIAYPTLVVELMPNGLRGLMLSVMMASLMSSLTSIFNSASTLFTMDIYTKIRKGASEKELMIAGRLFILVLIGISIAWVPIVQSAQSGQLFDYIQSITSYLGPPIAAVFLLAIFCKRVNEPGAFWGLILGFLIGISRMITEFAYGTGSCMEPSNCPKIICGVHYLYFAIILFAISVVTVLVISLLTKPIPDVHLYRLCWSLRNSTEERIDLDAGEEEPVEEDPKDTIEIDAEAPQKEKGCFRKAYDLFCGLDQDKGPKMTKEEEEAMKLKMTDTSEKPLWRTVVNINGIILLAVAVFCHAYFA
# Method: as §1
smiles,measurement,setting,value
"Cc1cc(OCCCNCC(C)(C)C(N)=O)ccc1Cc1c(O[C@@H]2O[C@H](CO)[C@@H](O)[C@H](O)[C@H]2O)n[nH]c1C(C)C [mizagliflozin, 3-(3-{4-[3-(β-D-glucopyranosyloxy)-5-isopropyl-1H-pyrazol-4-ylmethyl-]-3-methylphenoxy}propylamino)-2,2-dimethylpropionamide]",Ki,[1],14 µM
same,excreted in the feces,[2],> 82 % of orally administered dose
same,mode of inhibition of SGLT1 (Dixon plot intersection pattern),[3]; rat SGLT1,competitive with substrate
same,Ki,"[3]; α-MG 0.3 and 1 mM, COS-7 cells",31.2 nM
